Columns and labels:
[1] = system: rabbit intraocular pressure; assay: Rabbit intraocular pressure reduction enhancing action, combination with timolol maleate (Test Example 6-2); assay type: in vivo, Japanese white rabbit; conditions: 0.01 weight % 19-1 compound aqueous solution and/or timolol maleate (Timoptol), 50 μL; difference relative to the control group, 1, 2 and 4 hours
Procedure: As a test compound, the 19-1 compound was dissolved in physiological saline, and the solution was neutralized by addition of sodium hydroxide (pH 7.0 to 8.0) to prepare a 0.01 weight % aqueous solution (19-1 compound aqueous solution). As a drug for combination use, timolol maleate (trade name: Timoptol, Santen Pharmaceutical) was used as an adrenergic receptor β blocker, as the marketed formulation as it was.
A Japanese white rabbit having a body weight of about 2 kg was placed in a positioner and naturalized for one week before the experiment. An opthalmologic local anesthesant (Benoxil) was administered to both eyes, and then intraocular pressure before instillation was measured by using a tonometer (Classic 30, Solan). […] The intraocular pressure thereafter was measured for each group 1, 2 and 4 hours after the second administration of the test compound, and the difference of the measured values at each measurement time for the each group and the control group was considered an intraocular pressure reduction value of each group. The largest difference of the intraocular pressure values relative to the control group among those of the measured values of the measurement times was considered the maximum intraocular pressure reduction value (max ΔIOP) of each drug group.

[2] = system: monkey intraocular pressure; assay: Intraocular pressure reduction enhancing action in monkey (Test Example 7); assay type: in vivo; conditions: cynomolgus monkey
Procedure: Moreover, as for the test compound used for combination use, similar effect can be obtained also with the compounds of the present invention represented with the example numbers mentioned in Test Example 2. The test is performed by using cynomolgus monkeys sufficiently naturalized for the operation of fixation on a monkey chair and ophathalmotonometry.
As the test compound, the 19-1 compound is dissolved in physiological saline, and the solution is neutralized by addition of sodium hydroxide (pH 7.0 to 8.0) to prepare a 0.01 weight % aqueous solution (19-1 compound aqueous solution). As a drug for combination use, latanoprost (trade name: Xalatan, Pfizer) is used as the marketed formulation per se. The test aqueous solution or the drug for combination use is instilled to the left eye, and the right eye is not treated (control eye). […] After initial intraocular pressure values of the monkeys are measured for each group, 30 μL of physiological saline is instilled to the control group, single drug group 1, and single drug group 2, and latanoprost is instilled in the same volume to the combination use group. […] Then, the intraocular pressure is measured over time for each group.

[3] = system: rabbit normal intraocular pressure; assay: Intraocular pressure reducing action (Test Example 2); assay type: in vivo, Japanese white rabbit; conditions: Oryctolagus cuniculus, topical; 3 mM aqueous solution, 50 μl to the left eye; measured after 2, 4 and 6 hours; read-out: intraocular pressure reducing degree (max ΔIOP / intraocular pressure value immediately before administration × 100)
Procedure: A Japanese white rabbit having a body weight of about 2 kg was placed in a positioner and naturalized for one week before the experiment. An opthalmologic local anesthesant (Benoxil) was administered to both eyes, and then intraocular pressure was measured by using a tonometer (Classic 30, Solan). A 3 mM aqueous solution of a test compound was administered in a volume of 50 μl to the left eye, and the right eye was not treated (control eye). The intraocular pressure values were measured for the left and right eyes immediately before, and 2, 4 and 6 hours after the administration of the aqueous solution of the test compound, and the difference of the measured values for the left and right eyes was considered an intraocular pressure reduction value of the test medicament at each measurement time. The largest difference of the values for the left and right eyes among the measured values at the measurement times (after 2, 4 and 6 hours) was considered the maximum intraocular pressure reduction value (max ΔIOP) of each test medicament. The intraocular pressure reducing degree representing the intraocular pressure reducing action of each test medicament was calculated according to the following formula. Since rabbits show significant daily variation of intraocular pressure, daily variation is added when change of intraocular pressure is measured over time, and the intraocular pressure reducing action may be overestimated. Therefore, we used this calculation method of intraocular pressure reduction value in order to minimize the influence of the variation. Intraocular pressure reducing degree (%)=(max ΔIOP/Intraocular pressure value immediately before administration)×100

Structure (SMILES): N[C@H]1CCN(S(=O)(=O)c2cccc3cncc(Cl)c23)C1 [Example 19-1, (S)-3-Amino-1-(4-chloro-5-isoquinolinesulfonyl)pyrrolidine]
- Max ΔIOP (maximum intraocular pressure reduction value), Table 4 [1]: 4.1 mmHg
- intraocular pressure reducing action in the single drug group 1 ([2]; 0.01 weight % aqueous solution, 30 μL): exceeding that of the control group
- intraocular pressure reducing action in the combination use group ([2]; latanoprost (Xalatan) 30 μL, 5 minutes later 19-1 compound aqueous solution 30 μL): exceeding those of both the single drug group 1 and single drug group 2
- inhibition in vivo at 3000 µM [3]: ≥ 20%

Source: US7618984B2, “Sulfonamide compound” (Asahi Kasei Pharma Corporation, priority 2005, dated 2009)
